Measurements from paper PMC6663863, “The inositol hexakisphosphate kinases IP6K1 and -2 regulate human cellular phosphate homeostasis, including XPR1-mediated phosphate export” (The Journal of Biological Chemistry, 2019).

These molecules were tested against T1, SPX^XPR1 (recombinant His-tagged SPX domain of human XPR1) (Homo sapiens, UniProt Q9UBH6) (assay: competition with [3H]IP6, PEG precipitation).
T1 construct: SPX domain only, N-terminal cytosolic part; residue borders not given, cloning primers encode start MKFAEHL and end PPLGAAQ-stop; His tag (modified pHisTrcA), HisTrap purified
T1 sequence (Q9UBH6 1-227): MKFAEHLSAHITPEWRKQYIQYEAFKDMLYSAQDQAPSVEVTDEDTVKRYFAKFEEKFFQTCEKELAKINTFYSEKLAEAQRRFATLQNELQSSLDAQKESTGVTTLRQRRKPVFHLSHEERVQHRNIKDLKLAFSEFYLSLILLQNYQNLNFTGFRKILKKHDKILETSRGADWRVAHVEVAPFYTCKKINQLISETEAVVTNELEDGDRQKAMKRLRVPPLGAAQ
Assay type: binding

**Q.** Which IC50 does the source give for `O=P(O)(O)O[C@@H]1[C@@H](OP(=O)(O)O)[C@@H](OP(=O)(O)O)[C@@H](OP(=O)(O)OP(=O)(O)O)[C@H](OP(=O)(O)O)[C@H]1OP(=O)(O)O` [1-IP7] here?
**A.** The IC50 was about 8.4 µM.

**Q.** For `O=P(O)(O)O[C@H]1[C@@H](OP(=O)(O)O)[C@H](OP(=O)(O)O)[C@@H](OP(=O)(O)OP(=O)(O)O)[C@H](OP(=O)(O)O)[C@H]1OP(=O)(O)O` [5-IP7, 5-diphosphoinositol pentakisphosphate], which IC50 is on record?
**A.** Its IC50 is about 4.2 µM.

**Q.** `O=P(O)(O)O[C@@H]1[C@@H](OP(=O)(O)O)[C@H](OP(=O)(O)O)[C@H](O)[C@H](OP(=O)(O)O)[C@H]1OP(=O)(O)O` [I(1,3,4,5,6)P5] was tested. Which IC50 did it give?
**A.** The IC50 was 28.1 ± 3.9 µM.

**Q.** With `O=P(O)(O)O[C@H]1[C@H](OP(=O)(O)O)[C@@H](OP(=O)(O)O)[C@H](OP(=O)(O)O)[C@@H](OP(=O)(O)O)[C@H]1OP(=O)(O)O` [IP6, inositol hexakisphosphate] as the molecule, how does the IC50 read?
**A.** Its IC50 is about 9.8 µM.
